Laboratory results taken from the supplement of paper PMC10307832.

Key:
Experiment in all cases: relative viability (nuclei count vs DMSO), 5 days (fraction); higher = more cells survive
NCI-H2009 = tested on: NCI-H2009
Outline: (§1)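 A single step with final 0.05% Triton X-100, 1% formaldehyde and 1 ug/ml Hoechst fixed the cells and stained nuclei 5 days after treatment. Lung cancer cell lines in 1536-well plates had been treated by pin tool the day after seeding with one drug alone or a fixed anchor-drug dose plus five library-drug doses (not always all listed) in √10 steps, and nuclei were counted on 4× images. Relative viability is the ratio of nuclei in treated wells to nuclei in vehicle wells, taken as the median of duplicate plates.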

NCI-H2170 = tested on: NCI-H2170
Outline: as §1

NCI-H2228 = tested on: NCI-H2228
Outline: as §1

NCI-H2342 = tested on: NCI-H2342
Outline: as §1

NCI-H2347 = tested on: NCI-H2347
Outline: as §1

NCI-H322M = tested on: NCI-H322M
Outline: as §1

NCI-H358 = tested on: NCI-H358
Outline: as §1

NCI-H647 = tested on: NCI-H647
Outline: as §1

NCI-H838 = tested on: NCI-H838
Outline: as §1

PC-14 = tested on: PC-14
Outline: as §1

SK-MES-1 = tested on: SK-MES-1
Outline: as §1

UMC-11 = tested on: UMC-11
Outline: as §1

COc1cc(N2CCC(C(N)=O)CC2)ccc1Nc1nc(N)c(Cl)c(Nc2ccccc2S(=O)(=O)C(C)C)n1 [HG-5-88-01] + COc1cc2c(Oc3ccc(NC(=O)C4(C(=O)Nc5ccc(F)cc5)CC4)cc3F)ccnc2cc1OCCCN1CCOCC1 [Foretinib] (partner 0.25 µM)
relative viability (NCI-H2009; first compound 1.265 µM): 1.14
relative viability (NCI-H2009; first compound 4 µM): 1.24
relative viability (NCI-H2170; first compound 0.04 µM): 1.01
relative viability (NCI-H2170; first compound 0.1265 µM): 0.973
relative viability (NCI-H2170; first compound 0.4 µM): 0.967
relative viability (NCI-H2170; first compound 1.265 µM): 0.947
relative viability (NCI-H2170; first compound 4 µM): 1.12
relative viability (NCI-H2228; first compound 0.04 µM): 0.593
relative viability (NCI-H2228; first compound 0.1265 µM): 0.327
relative viability (NCI-H2228; first compound 0.4 µM): 0.353
relative viability (NCI-H2228; first compound 1.265 µM): 0.219
relative viability (NCI-H2228; first compound 4 µM): 0.27
relative viability (NCI-H2342; first compound 0.04 µM): 1.19
relative viability (NCI-H2342; first compound 0.1265 µM): 1.06
relative viability (NCI-H2342; first compound 0.4 µM): 1.13
relative viability (NCI-H2342; first compound 1.265 µM): 0.697
relative viability (NCI-H2342; first compound 4 µM): 1.04
relative viability (NCI-H2347; first compound 0.04 µM): 0.845
relative viability (NCI-H2347; first compound 0.1265 µM): 0.974
relative viability (NCI-H2347; first compound 0.4 µM): 1.03
relative viability (NCI-H2347; first compound 1.265 µM): 0.65
relative viability (NCI-H2347; first compound 4 µM): 0.452
relative viability (NCI-H322M; first compound 0.04 µM): 0.927
relative viability (NCI-H322M; first compound 0.1265 µM): 0.782
relative viability (NCI-H322M; first compound 0.4 µM): 0.635
relative viability (NCI-H322M; first compound 4 µM): 0.759
relative viability (NCI-H358; first compound 0.04 µM): 0.676
relative viability (NCI-H358; first compound 0.1265 µM): 0.605
relative viability (NCI-H358; first compound 0.4 µM): 0.479
relative viability (NCI-H358; first compound 1.265 µM): 0.224
relative viability (NCI-H358; first compound 4 µM): 0.23
relative viability (NCI-H647; first compound 0.04 µM): 1.33
relative viability (NCI-H647; first compound 0.1265 µM): 1.07
relative viability (NCI-H647; first compound 0.4 µM): 1.28
relative viability (NCI-H647; first compound 1.265 µM): 1.05
relative viability (NCI-H647; first compound 4 µM): 1.31
relative viability (NCI-H838; first compound 0.04 µM): 0.939
relative viability (NCI-H838; first compound 0.1265 µM): 1.02
relative viability (NCI-H838; first compound 0.4 µM): 0.797
relative viability (NCI-H838; first compound 1.265 µM): 0.814
relative viability (NCI-H838; first compound 4 µM): 0.893
relative viability (PC-14; first compound 0.04 µM): 0.974
relative viability (PC-14; first compound 0.1265 µM): 0.951
relative viability (PC-14; first compound 0.4 µM): 0.806
relative viability (PC-14; first compound 1.265 µM): 0.804
relative viability (PC-14; first compound 4 µM): 0.699
relative viability (SK-MES-1; first compound 0.04 µM): 0.875
relative viability (SK-MES-1; first compound 0.1265 µM): 0.808
relative viability (SK-MES-1; first compound 0.4 µM): 0.827
relative viability (SK-MES-1; first compound 1.265 µM): 0.684
relative viability (SK-MES-1; first compound 4 µM): 0.996
relative viability (UMC-11; first compound 0.04 µM): 1.09
relative viability (UMC-11; first compound 0.1265 µM): 1.07
relative viability (UMC-11; first compound 1.265 µM): 0.923
relative viability (UMC-11; first compound 4 µM): 0.371
